Reference: patent US20250381324A1, “CD31 MIMETIC COATING FOR ENDOVASCULAR STENT” (INSERM (Institut National de la Santé et de la Recherche …, priority 2021, published 2025)
Square brackets hold non-standard residues; d marks the D form. Primed or numbered codes have the meaning given here. Ends that are not written are not given here. Lys(N3) = [N-]=[N+]=NCCCC[C@H](N)C(=O)O; PEG4′ = not defined here

Tests used:
[1] = test system: Primary Human Aortic Endothelial Cells (HAEC); assay: Human aortic endothelial cells grown 48 h on bare or peptide-coated nitinol disks; F-actin / CD31 staining and image analysis; type: cell-based
Experimental: Nitinol disks are left untouched (bare metal) or coated with a domain 1, domain 2 or domain 1 and 2 CD31 analog peptide. The tested peptide is grafted to the nitinol disk following a polydopamine, DBCO-PEG4-amine and azide CD31 derivative peptide using a sequential dip-coating layering procedure. After this step, all the disks are incubated with Human aortic endothelial cells for 48 h. Disks are then rinsed and the cells are fixed in a formalin solution before staining. The staining is fulfilled using phalloidin coupled to AlexaFluor®488 dye (green fluorescence for Actin), DAPI is used for DNA staining and a domain 1 CD31 antibody coupled to APC is used for external Domain 1 staining. The cell adhesion and Actin/CD31 expression was evaluated by image analysis of the surface after staining.
In particular, as per FIG. 2 the bare or coated nitinol disks were placed at the bottom of culture wells. Primary Human Aortic Endothelial Cells (HAEC) were allowed to grow on the disks for a period of 48 h. The disks were thereafter rinsed with phosphate buffered saline, fixed in formalin, and processed for fluorescence microscopy. Disk-adherent cells were immersed in a solution comprising Hoechst 33342 (1 μg/ml, to stain the nuclei), phalloidin coupled to AlexaFluor®488 dye (0.5 μM, to stain F-actin fibers) and a monoclonal antibody directed against CD31 domain 1, coupled to allophycocyanin (to detect the presence and localization of intact CD31 at the cell surface) for 1 hour at 37° C., washed and mounted face down on glass bottom imaging chambers for imaging with an inverted fluorescence microscope.
Surface type is indicated on the Y axis, data are expressed as average±SD (N=6/surface type). Each dot corresponds to a specific surface modification. The F-actin expression relates the cellular stress of the cell in presence of the exogenous material.
In FIG. 4 the surface type is indicated on the Y axis. Each dot corresponds to a specific surface modification. Data are expressed as “Integrated Density” average±SD (N=6/surface type). CD31 expression relates the capacity of endothelial cells to adopt a physiologic phenotype while growing on a given substrate. An important variability is observed in terms of CD31 expression by HAEC according to the surface modification of the nitinol disks.
The “mirror” bars of FIG. 5 report the average Integrated Density of F-actin (left) and of CD31 (right) staining for each of the indicated (Y axis) type of peptide coated onto the disk surface and bare disks. Data are sorted (from the top to the bottom) according to the increase in the cellular stress (actin expression) of each coating. As shown on the figure, the degree of cellular stress (as detected by a high actin expression) and impaired endothelial phenotype (documented by a low CD31 expression) is evident on HAEC grown onto bare metal disks.
The data shown in FIG. 6 are expressed as the ratio between CD31 and F-actin expression.
The effect of different peptides, belonging to the different groups, were tested in batches following the same protocol as in FIG. 6. Different peptides from each group were tested in batches and the effect of individual peptides was repeatedly assessed in separate experiments. Data from all experiments were obtained by computer-assisted analysis of images of the disk side covered with endothelial cells, captured in the blue, green and red channel of an inverted fluorescence microscope. The functional score of the peptides belonging to the different groups was calculated by multiplying the number of cells (as detected by the number of blue, Dapi+ nuclei) for the integrated density of CD31 expression (red signal provided by the binding of a mouse anti-human CD31 monoclonal antibody, clone 9G11, conjugated allophycocyanin) and their product being divided for the integrated density of the F-actin polymerization (Phalloidin coupled to a green fluorochrome). […]

[2] = test system: aneurysm-carrying artery and abdominal aorta; assay: Flow-diverter stents (CFD) implanted in rabbit aneurysm-carrying artery and abdominal aorta; SEM and histopathology (Example 3); type: in vivo, New Zealand White rabbits
Experimental: Flow-diverter stents (CFD) are braided meshes made of nitinol, from Sinomed. They are coated by one of the following coatings: • 1. SP1072 peptide according to the invention, or • 2. Hydrophilic polymer eG NTMA (obtained from the electrografting of N-[Tris (hydroxymethyl) Methyl]Acrylamide).
• 1) Transfer each stent in a 5 mL polypropylene round bottom tube (Bd Falcon Ref 352063). Insure the stent drops at the bottom of the tube. • 2) Add 4.5 mL of a 2 mg/mL PDA solution per tube. Homogenize each tube on a rotary wheel (approx. 20 rpm) overnight (18+/−2 h) at room temperature and protect from light. […] The stent color should change from silver to brown/black. After the incubation period the solution will become black with small PDA aggregates • 3) Transfer each stent in a new tube and rinse 3-times with demineralized water. homogenize on the rotary wheel 5 min at each rinse. • 4) Leave the last rinse and sonicate the tube for at least 30 s to discard any remaining PDA chunk. • 5) Transfer each stent in a 2 mL—Eppendorf tube containing 1.8 mL of DBCO (300 μM) per tube. Homogenize each tube on a rotary wheel (approx. 20 rpm) overnight at room temperature and protect from light. • 6) Transfer each stent in a new tube and rinse 3-times with demineralized water. Homogenize on the rotary well 5 min at each rinse. • 7) Transfer each stent in a 2 mL—Eppendorf tube containing 1.8 mL of CD31 peptide (50 μg/mL) per tube. Homogenize each tube on a rotary wheel (approx. 20 rpm) for 2 hours at room temperature and protect from light. • 8) Transfer each stent in a new tube and rinse 3-times with demineralized water. Homogenize on the rotary well 5 min at each rinse. • 9) Soak each stent in absolute Ethanol for 5 seconds before letting them dry.
Comparative hydrophilic polymer eG NTMA-coated flow diverter stents were obtained via the following protocol: • (1) Cleaning pretreatment: The stent frames were sonicated in acetone, ethanol, and water for injection for 10 min, respectively. • (2) Electro-grafting solution preparation: N-[tris(hydroxymethyl)methyl]acrylamide, concentration 0.30 M; NaNO3, concentration 0.05 M; 4-nitrophenyl tetrafluoroborate diazonium salt, 0.005 M; the remaining amount is DMSO solvent. • (3) Electro-grafting process: the pretreated stents were used as the working electrode, and a platinum foil was used as the counter electrode, which was submerged in the electro-grafting solution, and a linear sweep voltage between −0.1 and −3.0 V and back was applied between the two electrodes with a voltage scan rate of 0.05 V/s for 10 cycles. • (4) Coating smoothing and drying: the electrografted scaffold was smoothed in acetone (2 L) with nitrogen bubbling (rate 0.5-10 L/min) for 10 min and placed in a vacuum drying oven at 40° C. for 2 h.
A total of 8 healthy New Zealand White rabbits (including 2 spare animals), male and female, weighing about 3 kg, were included in this study. A total of 3 observation time points of 7 days, 30 days and 60 days postoperatively were set. The experiment was divided into two steps: 1) aneurysm animal modeling; 2) implantation of a dense mesh stent in the aneurysm-carrying artery and abdominal aorta for each animal. The stent implantation in the aneurysm-carrying artery was to be used to examine the safety and effectiveness of the stent in treating aneurysms, and the stent implantation in the abdominal aorta, covering a pair of lumbar arteries, was to be used to examine the safety of the tested stent.
Step 1) (aneurysm animal modeling) was performed as follows: • (a) The rabbit is placed supine on the operating table and the neck is shaved. […] Every 20 minutes, saline drips were injected into the rabbit's cervical vessels and vagus nerve to keep them moistened. […] Continue to use antibiotics for 3-5 days after surgery. […]

[3] = test system: aneurysm-carrying artery and abdominal aorta; assay: Flow-diverter stents (CFD) in rabbits without aspirin or clopidogrel after implantation (Example 4); type: in vivo, New Zealand White rabbits; settings: day 7, n=3, no aspirin nor clopidogrel after implantation; preliminary
Excerpt: The same materials and protocol as in Example 3 were used, except that: • Only 3 animals were used for each condition, and • No aspirin nor clopidogrel was given to animals after the implantation.

[4] = day 7, aneurysm-carrying artery
[5] = day 60, aneurysm-carrying artery

Substance: YKSTVIVNNKEKTTAE-PEG4-K(N3)-CONH2 (YKSTVIVNNKEKTTAE[PEG4′][Lys(N3)]-NH2) [SP1072]
- CD31/Actin score ([1]; Example 2, FIG. 25, repeated experiments (SP547, SP548 only one measure)): significantly higher than those obtained by the bare metal disks or by disks coated with PDA alone
- CD31 expression (physiologic endothelial phenotype), Integrated Density ([1]; HAEC 48 h on coated nitinol disks, compared to other modified disks and bare controls, FIGS. 2, 4, 5): evident positive effect in terms of CD31 expression
- ratio between CD31 and F-actin expression ([1]; compared to bare metal and disks coated with PDA only, FIG. 6): higher CD31/actin ratio
- endothelialization of inner surface of flow-diverter stents (conclusion) ([2]; Example 3 overall): promotes early endothelialization on the inner surface of the flow-diverter stents
- endothelialization of the device at sites other than the aneurysm entry (conclusion) ([2]; Example 3 overall): endothelialization of the device is fast and complete without apparent inflammation nor neointima
- neo arterial wall at the entry of the aneurysm sac (conclusion) ([2]; Example 3 overall): promotes the growth of an organized, blood-impermeable neo arterial wall at the entry of the aneurysm sac
- neo-wall covering the aneurysmal neck (histopathology) [2, 4]: compact and rich in extracellular matrix (dark grey) and void of inflammation (no black nuclei) or thrombosis
- organization of thrombus in the aneurysmal sac (histopathology) [2, 4]: organized
- organization of thrombus in the aneurysmal sac (histopathology) [2, 5]: very well organized
- reaction of arterial wall in contact with stent struts (histopathology) [2, 5]: absence of inflammation/thrombosis of the arterial wall that is already in contact with the stent struts
- survival and thrombus after implantation [3]: still alive with no thrombus
